Data on 1 compound can be found in patent US11911396B2, “Use of compound in preparation of drug for treating cerebral small vessel disease” (GUANGZHOU CELLPROTEK PHARMACEUTICAL CO., LTD, priority 2017, dated 2024).

For assay [1], the system named is CD163. Description: Immunofluorescence of CD163 in prefrontal cortex brain tissue, acute hypobaric hypoxia model. The assay is classed as in vivo, cynomolgus monkeys. The settings on record: FIGS. 5A and 5B. An excerpt: (§1) FIG. 5. […] A. Immunofluorescence imaging of CD163 and Iba-1 in the brain tissue of cynomolgus monkeys. B. Statistics of relative fluorescence intensity of CD163 and Iba-1. C. Correlation analysis of relative fluorescence intensity of CD163 and Iba-1. NN: Normobaric Normoxia group; HH: Hypobaric Hypoxia group; HH+Triol: Hypobaric Hypoxia with Triol administration group; HH+PROG: Hypobaric Hypoxia with progesterone administration group. One-way ANOVA analysis and Dunnutt's t test were used to perform statistical tests, and in the latter each group was compared with the HH group, ***, p<0.001.
(§2) The thickness of paraffin sections was 5 μm. For fresh paraffin sections, the sections were dried at 37° C. overnight and then dried at 55° C. for 30 minutes. The sections were quickly placed in xylene for dewaxing. After fully dewaxing with xylene for 10 min for 3 times, absolute ethanol-95% ethanol-90% ethanol-80% ethanol-70% ethanol-50% ethanol-ddH2O were successively used for gradient rehydration. After rehydration, the sections were placed in EDTA antigen repair solution for microwave high temperature repair. After the repair was completed, it was allowed naturally cool down to room temperature. […] NIS-Elements Analysis software was used to analyze the fluorescence intensity of confocal images, which was then normalized with the fluorescence intensity per unit area according to the built-in scale. […]

In assay [2] the test system is Iba1. Description: Immunofluorescence of Iba1 in prefrontal cortex brain tissue, acute hypobaric hypoxia model. The assay is classed as in vivo, cynomolgus monkeys. To be noted: FIG. 5.
Text: as §1, §2

In the case of `CC(=O)[C@H]1CC[C@H]2[C@@H]3CCC4=CC(=O)CC[C@]4(C)[C@H]3CC[C@]12C` [progesterone, reference compound], the “down-regulation of CD163 expression caused by acute hypobaric hypoxia” value in assay [1] is recorded as “did not cancel the inhibition”. Further, the Iba1 expression result in assay [2] is given as “increased”.
